Reference: the supplement of paper PMC10307832

Experiments:
Assay in all cases: relative viability (nuclei count vs DMSO), 5 days (fraction); higher = more cells survive
ChaGo-K-1 = tested on: ChaGo-K-1
Outline: (§1)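 Relative viability was taken as the ratio of nuclei in treated wells to nuclei in vehicle wells. Lung cancer cell lines in 1536-well plates received compounds by pin tool one day after seeding, either one drug alone or a fixed anchor-drug dose plus five library-drug doses (not always all listed) in √10 steps. Nuclei were counted on 4× images after 5 days of treatment, and values are medians of duplicate plates.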

EMC-BAC-2 = tested on: EMC-BAC-2
Outline: as §1

EPLC-272H = tested on: EPLC-272H
Outline: as §1

HCC-78 = tested on: HCC-78
Outline: as §1

HCC-827 = tested on: HCC-827
Outline: as §1

LCLC-103H = tested on: LCLC-103H
Outline: as §1

LK-2 = tested on: LK-2
Outline: as §1

LOU-NH91 = tested on: LOU-NH91
Outline: as §1

LU99A = tested on: LU99A
Outline: as §1

LXF-289 = tested on: LXF-289
Outline: as §1

NCI-H1563 = tested on: NCI-H1563
Outline: as §1

## NC(=O)Nc1cc(-c2cccc(F)c2)sc1C(=O)N[C@H]1CCCNC1 [AZD7762] + CS(=O)(=O)N1CCN(Cc2cc3nc(-c4cccc5[nH]ncc45)nc(N4CCOCC4)c3s2)CC1 [Pictilisib] (partner 1 µM)
ChaGo-K-1; first compound 0.01 µM
  relative viability: 0.656
ChaGo-K-1; first compound 0.03162 µM
  relative viability: 0.815
ChaGo-K-1; first compound 0.1 µM
  relative viability: 0.846
ChaGo-K-1; first compound 0.3162 µM
  relative viability: 0.675
ChaGo-K-1; first compound 1 µM
  relative viability: 0.562
EMC-BAC-2; first compound 0.01 µM
  relative viability: 0.581
EMC-BAC-2; first compound 0.03162 µM
  relative viability: 0.576
EMC-BAC-2; first compound 0.1 µM
  relative viability: 0.574
EMC-BAC-2; first compound 0.3162 µM
  relative viability: 0.542
EMC-BAC-2; first compound 1 µM
  relative viability: 0.527
EPLC-272H; first compound 0.01 µM
  relative viability: 0.309
EPLC-272H; first compound 0.03162 µM
  relative viability: 0.377
EPLC-272H; first compound 0.1 µM
  relative viability: 0.291
EPLC-272H; first compound 0.3162 µM
  relative viability: 0.316
EPLC-272H; first compound 1 µM
  relative viability: 0.247
HCC-78; first compound 0.01 µM
  relative viability: 0.241
HCC-78; first compound 0.03162 µM
  relative viability: 0.228
HCC-78; first compound 0.1 µM
  relative viability: 0.205
HCC-78; first compound 0.3162 µM
  relative viability: 0.213
HCC-78; first compound 1 µM
  relative viability: 0.18
HCC-827; first compound 0.01 µM
  relative viability: 1.36
HCC-827; first compound 0.03162 µM
  relative viability: 0.962
HCC-827; first compound 0.1 µM
  relative viability: 1.17
HCC-827; first compound 0.3162 µM
  relative viability: 1.21
HCC-827; first compound 1 µM
  relative viability: 0.682
LCLC-103H; first compound 0.01 µM
  relative viability: 0.659
LCLC-103H; first compound 0.03162 µM
  relative viability: 0.609
LCLC-103H; first compound 0.1 µM
  relative viability: 0.574
LCLC-103H; first compound 0.3162 µM
  relative viability: 0.629
LCLC-103H; first compound 1 µM
  relative viability: 0.514
LK-2; first compound 0.01 µM
  relative viability: 0.628
LK-2; first compound 0.03162 µM
  relative viability: 0.485
LK-2; first compound 0.1 µM
  relative viability: 0.482
LK-2; first compound 0.3162 µM
  relative viability: 0.481
LK-2; first compound 1 µM
  relative viability: 0.34
LOU-NH91; first compound 0.01 µM
  relative viability: 0.546
LOU-NH91; first compound 0.03162 µM
  relative viability: 0.555
LOU-NH91; first compound 0.1 µM
  relative viability: 0.473
LOU-NH91; first compound 0.3162 µM
  relative viability: 0.489
LOU-NH91; first compound 1 µM
  relative viability: 0.595
LU99A; first compound 0.01 µM
  relative viability: 0.381
LU99A; first compound 0.03162 µM
  relative viability: 0.331
LU99A; first compound 0.1 µM
  relative viability: 0.324
LU99A; first compound 0.3162 µM
  relative viability: 0.319
LU99A; first compound 1 µM
  relative viability: 0.207
LXF-289; first compound 0.01 µM
  relative viability: 0.754
LXF-289; first compound 0.03162 µM
  relative viability: 0.875
LXF-289; first compound 0.1 µM
  relative viability: 0.809
LXF-289; first compound 0.3162 µM
  relative viability: 0.855
LXF-289; first compound 1 µM
  relative viability: 0.813
NCI-H1563; first compound 0.01 µM
  relative viability: 0.648
NCI-H1563; first compound 0.03162 µM
  relative viability: 0.629
NCI-H1563; first compound 0.1 µM
  relative viability: 0.539
NCI-H1563; first compound 0.3162 µM
  relative viability: 0.617
NCI-H1563; first compound 1 µM
  relative viability: 0.623
